Converted amounts (≈) assume the structure as drawn.
Tests used:
Her2Neu = experiment: Inhibition of cancer cell growth as measured by cell number (Sulforhodamine B); type: cell-based; conditions: 48 hours exposure; 3T3 line transfected with Her2 receptor kinase
Method: (§1) Human tumor cell lines were plated in 96-well plates (250 µl/well, 1-6 x 10^4 cells/ml) in RPMI 1640 medium, containing 5% FBS (Fetal Bovine Serum). […] After 48 hours exposure to test compounds, cells were fixed with trichloroacetic acid, and stained with Sulforhodamine B. After washing with trichloroacetic acid, bound dye was solubilized in 10 mM Tris base and optical density was determined using a plate reader. Under conditions of the assay the optical density is proportional to the number of cells in the well. IC50s (concentrations causing 50% inhibition of cell growth) were determined from the growth inhibition plots. The test procedure is described in details by Philip Skehan et. al, J.Natl. Canc. Inst., 82, 1107-1112 (1990). […] Information about some of the cell lines used in these test procedures is available from the American Type Tissue Collection: Cell Lines and Hybridomas, 1994 Reference Guide, 8th Edition. The Her2Neu cell line is a 3T3 line that has been transfected with Her2 receptor kinase.

3T3 = experiment: as above; type: cell-based; conditions: Mus musculus, NIH3T3; 48 hours exposure
Method: as §1

MDA435 = experiment: as above; type: cell-based; conditions: Homo sapiens, 48 hours exposure
Method: as §1

SW620 = experiment: as above; type: cell-based; conditions: Homo sapiens, SW-620; 48 hours exposure
Method: as §1

SKBR3 = experiment: as above; type: cell-based; conditions: Homo sapiens, SK-BR-3; 48 hours exposure
Method: as §1

A431 = experiment: as above; type: cell-based; conditions: Homo sapiens, A-431; 48 hours exposure
Method: as §1

[1] = target: T1, Epidermal Growth Factor Receptor Kinase (EGF-R) (Homo sapiens, UniProt P00533); experiment: Inhibition of Epidermal Growth Factor Receptor Kinase (EGF-R) using recombinant enzyme; type: biochemical
T1 construct: containing the EGFR cDNA encoding amino acids 645 - 1186 preceded by Met-Ala-(His)6; Met-Ala-(His)6 (N); made in house; host or cells: Sf9 insect cells (baculovirus vHcEGFR52)
Method: Representative test compounds were evaluated for their ability to inhibit the phosphorylation of the tyrosine residue of a peptide substrate catalyzed by the enzyme epidermal growth factor receptor kinase. The peptide substrate (RR-SRC) has the sequence arg-arg-leu-ile-glu-asp-ala-glu-tyr-ala-ala-arg-gly. The enzyme used in this assay is the His-tagged cytoplasmic domain of EGFR. A recombinant baculovirus (vHcEGFR52) was constructed containing the EGFR cDNA encoding amino acids 645 - 1186 preceded by Met-Ala-(His)6. Sf9 cells in 100 mm plates were infected at an moi of 10 pfu/cell and cells were harvested 48 hours post infection. A cytoplasmic extract was prepared using 1% Triton X-100 and applied to Ni-NTA column. After washing the column with 20 mM imidazole, HcEGFR was eluted with 250 mM imidazole (in 50 mM Na2HPO4, pH 8.0, 300 mM NaCl). Fractions collected were dialyzed against 10 mM HEPES, pH 7.0, 50 mM NaCl, 10% glycerol, 1µg/mL antipain and leupeptin and 0.1 mM Pefabloc SC. The protein was frozen in dry ice/methanol and stored -70° C.
Test compounds were made into 10 mg/mL stock solutions in 100% dimethylsulfoxide (DMSO). Prior to experiment, stock solutions were diluted to 500 µM with 100% DMSO and then serially diluted to the desired concentration with HEPES buffer (30 mM HEPES pH 7.4).
For the enzyme reaction, 10 µL of each inhibitor (at various concentrations) were added to each well of a 96-well plate. To this was added 3 µL of enzyme (1:10 dilution in 10mM HEPES, pH 7.4 for final conc. of 1:120). This was allowed to sit for 10 minutes on ice and was followed by the addition of 5 µl peptide (80 uM final conc.), 10µl of 4X Buffer (Table A), 0.25 µL ^33P-ATP and 12 µL H2O. The reaction was allowed to run for 90 minutes at room temperature and was followed by spotting the entire volume on to precut P81 filter papers. The filter discs were washed 2X with 0.5% phosphoric acid and radioactivity was measured using a liquid scintillation counter. Table A
The inhibition data for representative compounds of the invention are shown below in TABLE 1. The IC50 is the concentration of test compound needed to reduce the total amount of phosphorylated substrate by 50%. The % inhibition of the test compound was determined for at least three different concentrations and the IC50 value was evaluated from the dose response curve. […] CPM(control) is in units of counts per minute and was a number expressing the amount of radiolabeled ATP (γ-^33P) incorporated into the RR-SRC peptide substrate by the enzyme after 90 minutes at room temperature in the absence of test compound as measured by liquid scintillation counting. The CPM values were corrected for the background counts produced by ATP in the absence of the enzymatic reaction. Where it was possible to determine an IC50 value, this is reported in TABLE 1 otherwise the % inhibition at 0.5 µM concentration of test compound is shown in TABLE 1.

T1 sequence (P00533 669-1210): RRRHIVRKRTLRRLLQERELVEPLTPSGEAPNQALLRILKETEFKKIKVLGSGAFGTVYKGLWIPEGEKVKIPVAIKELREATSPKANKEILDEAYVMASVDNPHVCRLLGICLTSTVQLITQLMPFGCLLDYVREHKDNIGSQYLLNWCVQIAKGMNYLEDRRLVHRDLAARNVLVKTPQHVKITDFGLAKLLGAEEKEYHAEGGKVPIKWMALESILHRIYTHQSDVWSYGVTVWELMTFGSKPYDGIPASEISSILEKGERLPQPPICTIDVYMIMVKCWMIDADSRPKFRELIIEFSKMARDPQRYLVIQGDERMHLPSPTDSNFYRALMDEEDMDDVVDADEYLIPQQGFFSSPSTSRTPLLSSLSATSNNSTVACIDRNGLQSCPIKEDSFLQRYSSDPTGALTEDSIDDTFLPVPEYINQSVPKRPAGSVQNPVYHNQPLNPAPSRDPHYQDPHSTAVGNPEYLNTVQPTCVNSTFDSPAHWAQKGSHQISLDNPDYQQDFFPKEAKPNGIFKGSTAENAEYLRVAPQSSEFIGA

IC50 (Her2Neu): 3.9 µg/mL (≈ 11 µM)
IC50 (MDA435): 1.43 µg/mL (≈ 4.03 µM)
IC50 (SW620): 2.9 µg/mL (≈ 8.17 µM)
IC50 (SKBR3): 0.968 µg/mL (≈ 2.73 µM)
IC50 (A431): 0.527 µg/mL (≈ 1.49 µM)
inhibition at 0.5 µM ([1]; 0.5 µM concentration of test compound): 35.5%
IC50 ([1]; recombinant enzyme): 1000 nM
Compound: N#Cc1cnc2cc3c(cc2c1Nc1ccc(F)c(Cl)c1)NCCO3 [Example 7, 9-(3-Chloro-4-fluoroanilino)-2,3-dihydro-1H-[1,4]oxazino[3,2-g]quinoline-8-carbonitrile]
IC50 (3T3): 3.02 µg/mL (≈ 8.51 µM)

From patent EP1268487B1, “TRICYCLIC PROTEIN KINASE INHIBITORS” (Wyeth, priority 2000, dated 2001)
